Test results published in patent US12275731B2, “Azaindole inhibitors of wild-type and mutant forms of LRRK2” (DANA-FARBER CANCER INSTITUTE, INC., priority 2018, dated 2025).

Tests used:
Test in all cases: KinomeScan profiling
Type in all cases: binding
[1] = biological target: T1, ABL1(Q252H)-phosphorylated (Homo sapiens, UniProt P00519, Q252H); conditions: read-out: % control
T1 construct: purchased KinomeScan®
How it was run: (§1)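 Percent-of-control values derive from RLU, calculated as (test − positive)/(negative − positive) × 100, where DMSO defines 100% and a positive control compound defines 0%. Each compound was tested at 1 μM in the 468-kinase panel; sub-35% readings indicate activity.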

[2] = biological target: T2, KIT(L576P) (Homo sapiens, UniProt P10721, L576P); conditions: read-out: % control
T2 construct: purchased KinomeScan®
How it was run: as §1

[3] = biological target: MLK1 (Homo sapiens, UniProt P80192); conditions: MLK1, 1 μM; read-out: % control
How it was run: as §1

[4] = biological target: T3, PIP5K2C (Homo sapiens, UniProt Q8TBX8); conditions: read-out: % control
T3 construct: purchased KinomeScan® (panel service)
T3 sequence (Q8TBX8 1-421): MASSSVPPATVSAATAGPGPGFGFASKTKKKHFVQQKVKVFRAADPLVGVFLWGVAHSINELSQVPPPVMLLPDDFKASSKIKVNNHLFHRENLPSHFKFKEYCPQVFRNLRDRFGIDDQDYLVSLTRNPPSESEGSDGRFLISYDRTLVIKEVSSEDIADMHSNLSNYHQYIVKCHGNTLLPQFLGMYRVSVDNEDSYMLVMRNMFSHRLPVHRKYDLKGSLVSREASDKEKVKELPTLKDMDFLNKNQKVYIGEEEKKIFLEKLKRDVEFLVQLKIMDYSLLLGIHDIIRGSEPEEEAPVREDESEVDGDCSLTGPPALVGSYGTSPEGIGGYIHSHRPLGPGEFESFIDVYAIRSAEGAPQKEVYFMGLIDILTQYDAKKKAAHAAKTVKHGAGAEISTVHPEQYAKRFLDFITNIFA
How it was run: as §1

[5] = biological target: T4, RIPK1 (Homo sapiens, UniProt Q13546); conditions: RIPK1, 1 μM; read-out: % control
T4 sequence (Q13546 1-671): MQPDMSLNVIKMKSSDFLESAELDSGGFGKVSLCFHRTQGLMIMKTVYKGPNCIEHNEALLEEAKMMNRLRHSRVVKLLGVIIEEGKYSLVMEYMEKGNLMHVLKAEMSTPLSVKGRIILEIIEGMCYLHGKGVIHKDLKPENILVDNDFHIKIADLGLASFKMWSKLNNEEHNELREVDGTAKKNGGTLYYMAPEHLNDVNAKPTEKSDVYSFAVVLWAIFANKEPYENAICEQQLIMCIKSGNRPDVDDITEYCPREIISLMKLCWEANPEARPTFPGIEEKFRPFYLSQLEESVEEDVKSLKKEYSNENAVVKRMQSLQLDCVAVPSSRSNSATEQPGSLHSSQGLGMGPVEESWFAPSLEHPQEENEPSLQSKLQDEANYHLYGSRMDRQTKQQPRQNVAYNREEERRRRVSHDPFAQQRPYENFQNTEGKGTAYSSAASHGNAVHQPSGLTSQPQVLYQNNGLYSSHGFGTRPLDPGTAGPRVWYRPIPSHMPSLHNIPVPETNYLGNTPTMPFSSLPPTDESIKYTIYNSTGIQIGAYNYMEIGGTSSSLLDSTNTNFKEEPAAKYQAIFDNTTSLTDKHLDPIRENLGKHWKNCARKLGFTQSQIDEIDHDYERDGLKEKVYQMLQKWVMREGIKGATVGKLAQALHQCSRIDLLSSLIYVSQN
How it was run: as §1

[6] = biological target: T5, RPS6KA4(Kin.Dom.2-C-terminal) (Homo sapiens, UniProt O75676); conditions: read-out: % control
T5 construct: RPS6KA4(Kin.Dom.2-C-terminal)
How it was run: as §1

[7] = biological target: T6, RSK1(Kin.Dom.1-N-terminal) (Homo sapiens, UniProt Q15418); conditions: read-out: % control
T6 construct: RSK1(Kin.Dom.1-N-terminal)
How it was run: as §1

[8] = biological target: TLK2 (Homo sapiens, UniProt Q86UE8); conditions: TLK2, 1 μM; read-out: % control
How it was run: as §1

T5 sequence (O75676 411-674 limits assumed): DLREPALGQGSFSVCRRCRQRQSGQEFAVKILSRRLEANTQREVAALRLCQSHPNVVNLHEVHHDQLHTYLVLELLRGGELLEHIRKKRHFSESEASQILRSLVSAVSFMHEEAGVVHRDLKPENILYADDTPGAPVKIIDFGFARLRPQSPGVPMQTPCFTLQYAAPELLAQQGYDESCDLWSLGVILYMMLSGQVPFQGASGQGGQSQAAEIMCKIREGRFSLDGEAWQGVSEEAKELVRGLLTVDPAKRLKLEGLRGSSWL
T2 sequence (P10721 26-976 L576P): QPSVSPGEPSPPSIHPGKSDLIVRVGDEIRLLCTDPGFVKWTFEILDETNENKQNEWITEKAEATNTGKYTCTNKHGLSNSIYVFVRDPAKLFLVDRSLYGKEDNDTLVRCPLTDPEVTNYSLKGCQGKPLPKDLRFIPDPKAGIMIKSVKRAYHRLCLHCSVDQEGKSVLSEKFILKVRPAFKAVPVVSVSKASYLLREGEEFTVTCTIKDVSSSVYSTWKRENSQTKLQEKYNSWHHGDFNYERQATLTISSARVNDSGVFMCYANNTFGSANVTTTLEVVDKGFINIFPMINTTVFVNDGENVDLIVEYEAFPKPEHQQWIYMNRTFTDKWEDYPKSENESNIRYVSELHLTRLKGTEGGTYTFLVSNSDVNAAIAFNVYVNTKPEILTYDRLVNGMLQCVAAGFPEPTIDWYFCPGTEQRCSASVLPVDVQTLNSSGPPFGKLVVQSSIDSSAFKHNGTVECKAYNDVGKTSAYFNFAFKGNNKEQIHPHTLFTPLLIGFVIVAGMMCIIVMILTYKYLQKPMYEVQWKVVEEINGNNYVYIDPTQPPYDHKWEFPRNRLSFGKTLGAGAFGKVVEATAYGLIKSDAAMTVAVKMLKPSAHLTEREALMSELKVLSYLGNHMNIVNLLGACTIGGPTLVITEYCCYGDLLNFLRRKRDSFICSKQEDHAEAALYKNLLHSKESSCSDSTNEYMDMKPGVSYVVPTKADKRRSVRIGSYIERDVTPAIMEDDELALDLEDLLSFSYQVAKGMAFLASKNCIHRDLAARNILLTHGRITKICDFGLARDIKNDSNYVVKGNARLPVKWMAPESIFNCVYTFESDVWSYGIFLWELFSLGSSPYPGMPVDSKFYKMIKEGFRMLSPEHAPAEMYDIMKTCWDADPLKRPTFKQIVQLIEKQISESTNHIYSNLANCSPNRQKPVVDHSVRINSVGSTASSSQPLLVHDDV
MLK1, sequence (P80192 whole entry): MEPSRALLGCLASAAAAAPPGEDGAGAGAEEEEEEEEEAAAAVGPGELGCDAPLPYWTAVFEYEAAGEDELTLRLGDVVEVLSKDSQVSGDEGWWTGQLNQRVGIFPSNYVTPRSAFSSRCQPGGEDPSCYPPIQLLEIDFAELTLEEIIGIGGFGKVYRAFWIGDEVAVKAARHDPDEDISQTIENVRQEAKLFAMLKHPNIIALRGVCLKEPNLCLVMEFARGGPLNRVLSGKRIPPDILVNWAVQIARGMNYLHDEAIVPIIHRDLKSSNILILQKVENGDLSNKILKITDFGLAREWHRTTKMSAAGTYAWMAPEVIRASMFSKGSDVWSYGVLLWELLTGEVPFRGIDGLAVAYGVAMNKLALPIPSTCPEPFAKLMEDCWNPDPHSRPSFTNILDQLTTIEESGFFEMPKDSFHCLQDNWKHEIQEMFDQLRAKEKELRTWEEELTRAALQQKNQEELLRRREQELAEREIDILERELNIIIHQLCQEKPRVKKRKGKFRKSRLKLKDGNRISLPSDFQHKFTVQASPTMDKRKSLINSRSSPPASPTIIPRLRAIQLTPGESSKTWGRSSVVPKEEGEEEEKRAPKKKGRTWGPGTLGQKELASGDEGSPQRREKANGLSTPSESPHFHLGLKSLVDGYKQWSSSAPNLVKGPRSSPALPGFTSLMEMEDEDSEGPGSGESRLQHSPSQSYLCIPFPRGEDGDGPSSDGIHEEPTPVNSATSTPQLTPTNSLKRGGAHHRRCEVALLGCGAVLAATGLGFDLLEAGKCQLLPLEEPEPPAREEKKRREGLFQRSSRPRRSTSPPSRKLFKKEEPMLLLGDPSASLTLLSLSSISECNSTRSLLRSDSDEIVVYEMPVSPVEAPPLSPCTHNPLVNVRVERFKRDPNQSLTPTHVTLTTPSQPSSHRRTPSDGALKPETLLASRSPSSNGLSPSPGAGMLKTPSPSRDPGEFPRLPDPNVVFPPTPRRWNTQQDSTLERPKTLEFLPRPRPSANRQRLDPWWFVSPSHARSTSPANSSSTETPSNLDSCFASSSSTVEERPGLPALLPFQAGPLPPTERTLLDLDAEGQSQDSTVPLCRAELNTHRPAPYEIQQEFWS
TLK2, sequence (Q86UE8 whole entry): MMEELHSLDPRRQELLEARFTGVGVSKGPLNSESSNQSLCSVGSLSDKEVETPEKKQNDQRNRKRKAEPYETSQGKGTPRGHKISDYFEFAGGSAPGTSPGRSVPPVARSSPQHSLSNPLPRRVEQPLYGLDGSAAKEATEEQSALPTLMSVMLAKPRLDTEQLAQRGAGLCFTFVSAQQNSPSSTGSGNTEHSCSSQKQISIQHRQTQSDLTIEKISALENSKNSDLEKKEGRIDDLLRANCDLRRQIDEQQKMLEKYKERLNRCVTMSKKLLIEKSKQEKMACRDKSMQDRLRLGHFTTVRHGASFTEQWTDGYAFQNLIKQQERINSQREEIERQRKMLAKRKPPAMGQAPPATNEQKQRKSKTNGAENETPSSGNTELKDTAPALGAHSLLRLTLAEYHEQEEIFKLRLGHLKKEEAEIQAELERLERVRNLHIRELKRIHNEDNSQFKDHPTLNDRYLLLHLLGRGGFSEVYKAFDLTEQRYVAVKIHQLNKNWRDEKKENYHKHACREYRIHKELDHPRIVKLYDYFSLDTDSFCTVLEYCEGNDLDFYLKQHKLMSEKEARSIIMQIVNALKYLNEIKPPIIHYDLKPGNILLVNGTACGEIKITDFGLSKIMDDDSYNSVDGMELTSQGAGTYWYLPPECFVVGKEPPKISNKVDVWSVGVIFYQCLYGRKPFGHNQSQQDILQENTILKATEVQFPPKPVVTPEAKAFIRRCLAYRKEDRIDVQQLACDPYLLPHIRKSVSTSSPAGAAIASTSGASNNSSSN
T6 sequence (Q15418 62-321 limits assumed): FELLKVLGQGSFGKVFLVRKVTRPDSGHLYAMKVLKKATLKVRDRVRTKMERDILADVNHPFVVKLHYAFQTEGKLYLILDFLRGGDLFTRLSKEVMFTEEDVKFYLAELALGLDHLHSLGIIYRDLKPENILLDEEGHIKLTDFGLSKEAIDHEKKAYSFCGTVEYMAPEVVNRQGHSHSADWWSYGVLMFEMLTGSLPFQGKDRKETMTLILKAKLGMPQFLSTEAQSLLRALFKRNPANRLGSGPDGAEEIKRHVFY

SMILES	remaining binding at 1 µM [1]	remaining binding at 1 µM [2]	remaining binding at 1 µM [3]	remaining binding at 1 µM [4]	remaining binding at 1 µM [5]	remaining binding at 1 µM [6]	remaining binding at 1 µM [7]	remaining binding at 1 µM [8]
CNc1c(-c2cnn([C@H]3CCN(C(C)=O)C[C@@H]3F)c2)cnc2[nH]cc(Cl)c12 [Compound 77, 1-((3S,4S)-4-(4-(3-chloro-4-(methylamino)-1H-pyrrolo[2,3-b]pyridin-5-yl)-1H-pyrazol-1-yl)-3-fluoropiperidin-1-yl)ethan-1-one]	95%	10%	91%	93%	19%	90%	93%	99%
CNc1c(-c2ccc(C(=O)N3CCC(N4CCOCC4)CC3)cc2)cnc2[nH]cc(Cl)c12 [Compound 96, (4-(3-chloro-4-(methylamino)-1H-pyrrolo[2,3-b]pyridin-5-yl)phenyl)(4-morpholinopiperidin-1-yl)methanone]	100%	19%	96%	63%	44%	65%	100%	100%
O=C(c1ccc(-c2cnc3[nH]cc(Cl)c3c2NC2CCCC2)cc1)N1CCC(N2CCOCC2)CC1 [Compound 101, (4-(3-chloro-4-(cyclopentylamino)-1H-pyrrolo[2,3-b]pyridin-5-yl)phenyl)(4-morpholinopiperidin-1-yl)methanone]	100%	46%	96%	77%	47%	99%	80%	100%
